In brackets after ≈: the same amount, converted by molar mass. Read-outs that look alike come from different tables or passages of the source.
Assays:
Staphylococcus aureus = assay: Efficacy in Staph. aureus infection of the mouse; format: in vivo, Maus; details: mouse infected with Staphylococcus aureus
Bacteroides fragilis = assay: MIC, agar dilution test (Multipoint-Inokulator Denley, Isosensitest-Agar); format: cell-based
Bact. thetaiotaomicron = assay: as above; format: cell-based; details: Bacteroides thetaiotaomicron, DSM2079, Stamm DSM 2079, read-out: MHK-Werte
Clostridium perfringens = assay: microbe, parasite or virus in culture; format: cell-based; details: read-out: MHK-Werte
[1] = DSM2151, Stamm DSM 2151, Isosensitest-Agar, read-out: MHK-Werte
[2] = Stamm ES 25, Isosensitest-Agar, read-out: MHK-Werte

## CC(=O)CCN1CCO[C@H]2CN(c3c(F)cc4c(=O)c(C(=O)O)cn(C5CC5)c4c3F)C[C@H]21 (racemic) [Beispiel 31, 1-Cyclopropyl-6,8-difluor-1,4-dihydro-4-oxo-7-(cis-5-[3-oxo-1-butyl]-2-oxa-5,8-diazabicyclo[4.3.0]non-8-yl)-3-chinolincarbonsäure]
Staphylococcus aureus; p.o.
  Wirksamkeit in der Staph. aureus-Infektion an der Maus: 10 mg/kg
Staphylococcus aureus; s.c.
  Wirksamkeit in der Staph. aureus-Infektion an der Maus: 10 mg/kg

## O=C(O)c1cn(C2CC2)c2c(Cl)c(N3C[C@@H]4CCCN[C@@H]4C3)c(F)cc2c1=O [A, 8-Chlor-1-cyclopropyl-7-([S,S]-2,8-diazabicyclo[4.3.0]non-8-yl)-6-fluor-1,4-dihydro-4-oxo-3-chinolincarbonsäure]
Bacteroides fragilis; [1]
  MIC: 0.25 µg/mL (≈ 0.616 µM)
Bacteroides fragilis; [2]
  MIC: 0.25 µg/mL (≈ 0.616 µM)
Bact. thetaiotaomicron
  MIC: 0.5 µg/mL (≈ 1.23 µM)

## CN1CCC2CN(c3c(F)cc4c(=O)c(C(=O)O)cn(C5CC5)c4c3Cl)CC21 (stereo not shown) [B]
Bacteroides fragilis; [1]
  MIC: 0.5 µg/mL (≈ 1.23 µM)
Bacteroides fragilis; [2]
  MIC: 1 µg/mL (≈ 2.46 µM)
Clostridium perfringens
  MIC: 0.5 µg/mL (≈ 1.23 µM)
Bact. thetaiotaomicron
  MIC: 2 µg/mL (≈ 4.93 µM)

## CC(=O)CCN1CCC[C@H]2CN(c3c(F)cc4c(=O)c(C(=O)O)cn(C5CC5)c4c3F)C[C@H]21 [Beispiel 27, 1-Cyclopropyl-6,8-difluor-1,4-dihydro-4-oxo-7-([S,S]-2-[3-oxo-1-butyl]-2,8-diazabicyclo[4.3.0]non-8-yl)-3-chinolincarbonsäure]
Staphylococcus aureus; p.o.
  Wirksamkeit in der Staph. aureus-Infektion an der Maus: 10 mg/kg
Staphylococcus aureus; s.c.
  Wirksamkeit in der Staph. aureus-Infektion an der Maus: 2,5 mg/kg

## CC(=O)CCN1CCC[C@H]2CN(c3c(F)cc4c(=O)c(C(=O)O)cn(C5CC5)c4c3Cl)C[C@H]21 [Beispiel 29A, 8-Chlor-1-cyclopropyl-6-fluor-1,4-dihydro-4-oxo-7-([S,S]-2-[3-oxo-1-butyl]-2,8-diazabicyclo[4.3.0]non-8-yl)-3-chinolincarbonsäure]
Staphylococcus aureus; p.o.
  Wirksamkeit in der Staph. aureus-Infektion an der Maus: 5 mg/kg
Staphylococcus aureus; s.c.
  Wirksamkeit in der Staph. aureus-Infektion an der Maus: 5 mg/kg

## N#CCCN1CCC[C@H]2CN(c3c(F)cc4c(=O)c(C(=O)O)cn(C5CC5)c4c3Cl)C[C@H]21 [Beispiel 33, 8-Chlor-7-([S,S]-2-[2-cyanoethyl]-2,8-diazabicyclo[4.3.0]non-8-yl)-1-cyclopropyl-6-fluor-1,4-dihydro-4-oxo-3-chinolincarbonsäure]
Staphylococcus aureus; p.o.
  Wirksamkeit in der Staph. aureus-Infektion an der Maus: 10 mg/kg
Staphylococcus aureus; s.c.
  Wirksamkeit in der Staph. aureus-Infektion an der Maus: 5 mg/kg

## COC(=O)C=C(C(=O)OC)N1CCC[C@H]2CN(c3c(F)cc4c(=O)c(C(=O)O)cn(C5CC5)c4c3Cl)C[C@H]21 [Beispiel 35, 8-Chlor-1-cyclopropyl-7-[2-(1,2-bis-methoxycarbonyl-vinyl)-1S,6S-2,8-diazabicyclo[4.3.0]non-8-yl]-6-fluor-1,4-dihydro-4-oxo-3-chinolincarbonsäure]
Staphylococcus aureus; p.o.
  Wirksamkeit in der Staph. aureus-Infektion an der Maus: 2,5 mg/kg
Staphylococcus aureus; s.c.
  Wirksamkeit in der Staph. aureus-Infektion an der Maus: 2,5 mg/kg

## O=C(O)c1cn(C2CC2)c2cc(N3CCNCC3)c(F)cc2c1=O [Ciprofloxacin]
Staphylococcus aureus; p.o.
  Wirksamkeit in der Staph. aureus-Infektion an der Maus: 80 mg/kg
Staphylococcus aureus; s.c.
  Wirksamkeit in der Staph. aureus-Infektion an der Maus: 80 mg/kg
Bacteroides fragilis; DSM2151, read-out: MHK-Werte
  MIC: 4 µg/mL (≈ 12.1 µM)
Bacteroides fragilis; read-out: MHK-Werte
  MIC: 8 µg/mL (≈ 24.1 µM)
Bact. thetaiotaomicron
  MIC: 8 µg/mL (≈ 24.1 µM)
